Results as given in the NIST ThermoML archive (doi:10.1016/j.jct.2008.10.007).
± gives the expanded uncertainty stated by the source.

Key:
[1] = excess molar enthalpy (molar enthalpy of mixing); xn = mol fraction of the nth substance listed; settings: 298.15 K, 101 kPa, Liquid, Calvet calorimetry
[2] = xn = mol fraction of the nth substance listed; settings: 298.15 K, 101 kPa, Liquid, Vibrating tube method

ClCCCl [1,2-dichloroethane] + CCCOC(C)=O
Settings | excess molar enthalpy [kcal/mol] | mass density [kg/m3]
[1], x2 = 0.0472 | -0.0155 ± 0.000478 | –
[1], x2 = 0.1047 | -0.0332 ± 0.000717 | –
[1], x2 = 0.1719 | -0.0559 ± 0.0012 | –
[1], x2 = 0.2424 | -0.0793 ± 0.00167 | –
[1], x2 = 0.3127 | -0.102 ± 0.00215 | –
[1], x2 = 0.3806 | -0.117 ± 0.00263 | –
[1], x2 = 0.4423 | -0.128 ± 0.00287 | –
[1], x2 = 0.5012 | -0.132 ± 0.00287 | –
[1], x2 = 0.5663 | -0.13 ± 0.00287 | –
[1], x2 = 0.6408 | -0.122 ± 0.00263 | –
[1], x2 = 0.7169 | -0.107 ± 0.00239 | –
[1], x2 = 0.8115 | -0.0784 ± 0.00167 | –
[1], x2 = 0.9076 | -0.0447 ± 0.000956 | –
[2], x2 = 0.0403 | – | 1224.14 ± 7.6
[2], x2 = 0.0822 | – | 1202.71 ± 6.8
[2], x2 = 0.1258 | – | 1181.25 ± 6.1
[2], x2 = 0.1723 | – | 1159.34 ± 5.4
[2], x2 = 0.2206 | – | 1137.71 ± 4.7
[2], x2 = 0.271 | – | 1116.1 ± 4.1
[2], x2 = 0.323 | – | 1094.66 ± 3.5
[2], x2 = 0.3773 | – | 1073.38 ± 3
[2], x2 = 0.435 | – | 1051.79 ± 2.5
[2], x2 = 0.4925 | – | 1031.26 ± 2
[2], x2 = 0.5542 | – | 1010.09 ± 1.6
[2], x2 = 0.6231 | – | 987.69 ± 1.3
[2], x2 = 0.693 | – | 966.04 ± 0.98
[2], x2 = 0.7654 | – | 944.7 ± 0.73
[2], x2 = 0.8389 | – | 924.07 ± 0.52
[2], x2 = 0.9173 | – | 903.11 ± 0.36

ClCCCCl [1,3-dichloropropane] + CCCOC(=O)CC
Settings | excess molar enthalpy [kcal/mol] | mass density [kg/m3]
[1], x2 = 0.0469 | -0.00932 ± 0.000239 | –
[1], x2 = 0.1103 | -0.0208 ± 0.000478 | –
[1], x2 = 0.1814 | -0.0361 ± 0.000956 | –
[1], x2 = 0.2562 | -0.0545 ± 0.0012 | –
[1], x2 = 0.3312 | -0.0691 ± 0.00143 | –
[1], x2 = 0.4023 | -0.0803 ± 0.00167 | –
[1], x2 = 0.4661 | -0.0882 ± 0.00191 | –
[1], x2 = 0.528 | -0.0927 ± 0.00215 | –
[1], x2 = 0.6046 | -0.0894 ± 0.00191 | –
[1], x2 = 0.706 | -0.0793 ± 0.00167 | –
[1], x2 = 0.816 | -0.0576 ± 0.0012 | –
[1], x2 = 0.9152 | -0.0318 ± 0.000717 | –
[2], x2 = 0.0456 | – | 1160.2 ± 6.8
[2], x2 = 0.09 | – | 1142.38 ± 6.1
[2], x2 = 0.1357 | – | 1124.66 ± 5.4
[2], x2 = 0.1827 | – | 1107.03 ± 4.8
[2], x2 = 0.2323 | – | 1089.1 ± 4.2
[2], x2 = 0.2857 | – | 1070.52 ± 3.6
[2], x2 = 0.3377 | – | 1053.06 ± 3.1
[2], x2 = 0.3926 | – | 1035.32 ± 2.7
[2], x2 = 0.5112 | – | 999.15 ± 1.8
[2], x2 = 0.5749 | – | 980.88 ± 1.5
[2], x2 = 0.6382 | – | 963.43 ± 1.2
[2], x2 = 0.7097 | – | 944.54 ± 0.9
[2], x2 = 0.7804 | – | 926.67 ± 0.67
[2], x2 = 0.8459 | – | 910.76 ± 0.5
[2], x2 = 0.9232 | – | 892.71 ± 0.35

ClCCCCl [1,3-dichloropropane] + CCCOC(C)=O
Settings | excess molar enthalpy [kcal/mol] | mass density [kg/m3]
[1], x2 = 0.054 | -0.00908 ± 0.000239 | –
[1], x2 = 0.1279 | -0.0206 ± 0.000478 | –
[1], x2 = 0.2091 | -0.0349 ± 0.000717 | –
[1], x2 = 0.2781 | -0.049 ± 0.0012 | –
[1], x2 = 0.3637 | -0.0624 ± 0.00143 | –
[1], x2 = 0.4401 | -0.0741 ± 0.00167 | –
[1], x2 = 0.5067 | -0.0813 ± 0.00191 | –
[1], x2 = 0.5223 | -0.0829 ± 0.00191 | –
[1], x2 = 0.572 | -0.0837 ± 0.00191 | –
[1], x2 = 0.6457 | -0.0779 ± 0.00167 | –
[1], x2 = 0.738 | -0.0679 ± 0.00143 | –
[1], x2 = 0.8364 | -0.0488 ± 0.0012 | –
[1], x2 = 0.931 | -0.0237 ± 0.000717 | –
[2], x2 = 0.051 | – | 1160.75 ± 6.7
[2], x2 = 0.1013 | – | 1143.09 ± 6
[2], x2 = 0.1519 | – | 1125.74 ± 5.3
[2], x2 = 0.2062 | – | 1107.55 ± 4.6
[2], x2 = 0.2602 | – | 1089.75 ± 4
[2], x2 = 0.314 | – | 1072.51 ± 3.4
[2], x2 = 0.4262 | – | 1037.75 ± 2.5
[2], x2 = 0.5391 | – | 1004.31 ± 1.7
[2], x2 = 0.5986 | – | 987.32 ± 1.4
[2], x2 = 0.6602 | – | 970.1 ± 1.1
[2], x2 = 0.7227 | – | 953.06 ± 0.87
[2], x2 = 0.758 | – | 943.63 ± 0.75
[2], x2 = 0.7981 | – | 933.1 ± 0.63
[2], x2 = 0.8553 | – | 918.23 ± 0.48
[2], x2 = 0.934 | – | 898.35 ± 0.33

ClCCCCCl [1,4-dichlorobutane] + CCCOC(=O)CC
Settings | excess molar enthalpy [kcal/mol] | mass density [kg/m3]
[1], x2 = 0.0573 | -0.00621 ± 0.000239 | –
[1], x2 = 0.133 | -0.0151 ± 0.000478 | –
[1], x2 = 0.2168 | -0.0308 ± 0.000717 | –
[1], x2 = 0.3006 | -0.0461 ± 0.000956 | –
[1], x2 = 0.381 | -0.0598 ± 0.00143 | –
[1], x2 = 0.4539 | -0.071 ± 0.00167 | –
[1], x2 = 0.5117 | -0.0743 ± 0.00167 | –
[1], x2 = 0.5559 | -0.0743 ± 0.00167 | –
[1], x2 = 0.6419 | -0.071 ± 0.00167 | –
[1], x2 = 0.7366 | -0.0621 ± 0.00143 | –
[1], x2 = 0.8338 | -0.0447 ± 0.000956 | –
[1], x2 = 0.9261 | -0.0227 ± 0.000478 | –
[2], x2 = 0.0527 | – | 1118.03 ± 6.2
[2], x2 = 0.1038 | – | 1102.83 ± 5.5
[2], x2 = 0.1547 | – | 1087.98 ± 4.9
[2], x2 = 0.2085 | – | 1072.56 ± 4.3
[2], x2 = 0.2627 | – | 1057.37 ± 3.7
[2], x2 = 0.3186 | – | 1041.98 ± 3.2
[2], x2 = 0.3736 | – | 1027.16 ± 2.7
[2], x2 = 0.49 | – | 996.65 ± 1.9
[2], x2 = 0.5485 | – | 981.77 ± 1.6
[2], x2 = 0.612 | – | 965.97 ± 1.3
[2], x2 = 0.6735 | – | 950.93 ± 1
[2], x2 = 0.7351 | – | 936.2 ± 0.81
[2], x2 = 0.8004 | – | 920.88 ± 0.61
[2], x2 = 0.866 | – | 905.76 ± 0.46
[2], x2 = 0.9333 | – | 890.53 ± 0.33

ClCCCCCl [1,4-dichlorobutane] + CCCOC(C)=O
Settings | excess molar enthalpy [kcal/mol] | mass density [kg/m3]
[1], x2 = 0.0555 | -0.00478 ± 0.000239 | –
[1], x2 = 0.1316 | -0.0131 ± 0.000478 | –
[1], x2 = 0.2183 | -0.0234 ± 0.000717 | –
[1], x2 = 0.3079 | -0.0359 ± 0.000956 | –
[1], x2 = 0.3915 | -0.048 ± 0.0012 | –
[1], x2 = 0.456 | -0.055 ± 0.0012 | –
[1], x2 = 0.4663 | -0.0559 ± 0.0012 | –
[1], x2 = 0.4979 | -0.0576 ± 0.0012 | –
[1], x2 = 0.5721 | -0.0564 ± 0.0012 | –
[1], x2 = 0.6576 | -0.0523 ± 0.0012 | –
[1], x2 = 0.7494 | -0.0447 ± 0.000956 | –
[1], x2 = 0.8443 | -0.0318 ± 0.000717 | –
[1], x2 = 0.9296 | -0.0174 ± 0.000478 | –
[2], x2 = 0.0583 | – | 1118.51 ± 6.2
[2], x2 = 0.1175 | – | 1103.2 ± 5.4
[2], x2 = 0.1743 | – | 1088.55 ± 4.7
[2], x2 = 0.232 | – | 1073.72 ± 4.1
[2], x2 = 0.3494 | – | 1043.76 ± 3
[2], x2 = 0.465 | – | 1014.55 ± 2.1
[2], x2 = 0.523 | – | 999.98 ± 1.8
[2], x2 = 0.5845 | – | 984.6 ± 1.4
[2], x2 = 0.6424 | – | 970.19 ± 1.2
[2], x2 = 0.7011 | – | 955.64 ± 0.94
[2], x2 = 0.7618 | – | 940.61 ± 0.73
[2], x2 = 0.8813 | – | 911.2 ± 0.43
[2], x2 = 0.9397 | – | 896.91 ± 0.32

ClCCCCCCl [1,5-dichloropentane] + CCCOC(=O)CC
Settings | excess molar enthalpy [kcal/mol] | mass density [kg/m3]
[1], x2 = 0.0588 | -0.00406 ± 0.000239 | –
[1], x2 = 0.1375 | -0.0136 ± 0.000478 | –
[1], x2 = 0.2257 | -0.0241 ± 0.000717 | –
[1], x2 = 0.3118 | -0.0375 ± 0.000956 | –
[1], x2 = 0.3922 | -0.0495 ± 0.0012 | –
[1], x2 = 0.4517 | -0.0576 ± 0.0012 | –
[1], x2 = 0.4693 | -0.059 ± 0.00143 | –
[1], x2 = 0.5239 | -0.0609 ± 0.00143 | –
[1], x2 = 0.5982 | -0.0588 ± 0.00143 | –
[1], x2 = 0.6783 | -0.0526 ± 0.0012 | –
[1], x2 = 0.7663 | -0.0425 ± 0.000956 | –
[1], x2 = 0.855 | -0.0287 ± 0.000717 | –
[1], x2 = 0.9359 | -0.0146 ± 0.000478 | –
[2], x2 = 0.0586 | – | 1081.99 ± 5.7
[2], x2 = 0.1204 | – | 1068.2 ± 5
[2], x2 = 0.1736 | – | 1056.39 ± 4.4
[2], x2 = 0.2854 | – | 1031.55 ± 3.4
[2], x2 = 0.3403 | – | 1019.42 ± 2.9
[2], x2 = 0.4006 | – | 1006.12 ± 2.5
[2], x2 = 0.5242 | – | 978.97 ± 1.7
[2], x2 = 0.635 | – | 954.74 ± 1.2
[2], x2 = 0.6961 | – | 941.43 ± 0.94
[2], x2 = 0.7548 | – | 928.67 ± 0.74
[2], x2 = 0.8219 | – | 914.07 ± 0.56
[2], x2 = 0.8809 | – | 901.3 ± 0.42
[2], x2 = 0.942 | – | 888.12 ± 0.31
